In paper PMC9021288 (Nature Communications, 2022):
“And” between values parts separate entries of the source, which are not always exact repeats. Equal entries are not always repeated. Where two headings read alike, the source gives them in different places.

Tests used:
[1] = test system: P. falciparum NF54 asexual blood-stage parasites; parameters: method as in earlier work; details: ref 15 (Schalkwijk et al.); cited from earlier work
[2] = test system: artemisinin-resistant P. falciparum Cambodian field isolates; assay: Drug susceptibility of culture-adapted Cambodian isolates; assay type: cell-based, Plasmodium falciparum
Method: Endpoint readout to determine parasites density was performed with a High-Content Confocal Imaging microscope (Lionheart™ FX Automated Microscope, Biotek), IC50 values were obtained using ICestimator software (http://www.antimalarial-icestimator.net/runregression1.2.htm).

[3] = biological target: T1, panel of human receptors and channels (Homo sapiens, UniProt P04150); assay type: binding; details: GR (h) (agonist radioligand); Rep1, Rep2, Mean
T1 construct: purchased Eurofins CEREP

[4] = biological target: T2, panel of human receptors and channels (Homo sapiens, UniProt P06401); assay type: binding; details: PR (h) (agonist radioligand); Rep1, Rep2, Mean
T2 construct: purchased Eurofins CEREP
T2 sequence (P06401 whole entry): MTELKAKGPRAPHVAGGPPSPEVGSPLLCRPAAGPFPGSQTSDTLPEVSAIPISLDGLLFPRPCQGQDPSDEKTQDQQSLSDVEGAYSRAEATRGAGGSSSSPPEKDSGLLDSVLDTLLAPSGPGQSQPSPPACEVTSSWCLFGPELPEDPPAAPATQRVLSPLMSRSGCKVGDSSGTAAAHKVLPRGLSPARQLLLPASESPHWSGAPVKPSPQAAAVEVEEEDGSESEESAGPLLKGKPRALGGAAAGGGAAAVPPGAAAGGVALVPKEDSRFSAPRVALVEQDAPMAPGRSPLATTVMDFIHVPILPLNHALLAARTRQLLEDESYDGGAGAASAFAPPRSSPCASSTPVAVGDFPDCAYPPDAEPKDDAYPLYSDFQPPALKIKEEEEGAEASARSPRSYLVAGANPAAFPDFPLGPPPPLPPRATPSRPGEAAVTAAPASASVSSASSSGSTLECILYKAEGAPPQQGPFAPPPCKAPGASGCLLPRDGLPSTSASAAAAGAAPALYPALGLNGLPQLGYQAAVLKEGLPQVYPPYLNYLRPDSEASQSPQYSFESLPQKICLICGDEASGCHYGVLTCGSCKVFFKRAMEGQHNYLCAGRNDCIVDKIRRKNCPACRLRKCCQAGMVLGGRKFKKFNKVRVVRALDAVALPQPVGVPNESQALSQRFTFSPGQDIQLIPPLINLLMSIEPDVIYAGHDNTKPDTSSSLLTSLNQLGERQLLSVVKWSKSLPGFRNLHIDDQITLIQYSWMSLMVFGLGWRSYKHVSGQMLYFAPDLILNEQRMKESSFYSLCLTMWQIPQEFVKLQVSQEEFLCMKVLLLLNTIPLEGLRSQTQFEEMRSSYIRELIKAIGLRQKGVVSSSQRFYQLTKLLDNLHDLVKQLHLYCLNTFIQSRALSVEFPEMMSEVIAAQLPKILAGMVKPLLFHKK

[5] = biological target: T3, panel of human receptors and channels (Homo sapiens, UniProt P0DMS8); assay type: binding; details: A3 (h) (agonist radioligand); Rep1, Rep2, Mean
T3 construct: purchased Eurofins CEREP
T3 sequence (P0DMS8 whole entry): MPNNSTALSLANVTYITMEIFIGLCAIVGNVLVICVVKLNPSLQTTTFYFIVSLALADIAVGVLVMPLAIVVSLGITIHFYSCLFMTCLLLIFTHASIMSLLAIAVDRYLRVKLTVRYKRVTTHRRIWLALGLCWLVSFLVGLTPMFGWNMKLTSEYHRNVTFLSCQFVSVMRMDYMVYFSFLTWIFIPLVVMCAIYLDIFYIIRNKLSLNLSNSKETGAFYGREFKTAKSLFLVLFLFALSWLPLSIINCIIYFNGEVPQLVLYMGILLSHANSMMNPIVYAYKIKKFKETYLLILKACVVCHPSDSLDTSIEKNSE

[6] = biological target: T4, panel of human receptors and channels (Homo sapiens, UniProt P25021); assay type: binding; details: H2 (h) (antagonist radioligand); Rep1, Rep2, Mean
T4 construct: purchased Eurofins CEREP

[7] = biological target: T5, panel of human receptors and channels (Homo sapiens, UniProt P25101); assay type: binding; details: ETA (h) (agonist radioligand); Rep1, Rep2, Mean
T5 construct: purchased Eurofins CEREP

[8] = biological target: T6, panel of human receptors and channels (Homo sapiens, UniProt P29371); assay type: binding; details: NK3 (h) (antagonist radioligand); Rep1, Rep2, Mean
T6 construct: purchased Eurofins CEREP

[9] = biological target: T7, panel of human receptors and channels (Homo sapiens, UniProt P30411); assay type: binding; details: B2 (h) (agonist radioligand); Rep1, Rep2, Mean
T7 construct: purchased Eurofins CEREP

[10] = biological target: T8, panel of human receptors and channels (Homo sapiens, UniProt P30518); assay type: binding; details: V2 (h) (agonist radioligand); Rep1, Rep2, Mean
T8 construct: purchased Eurofins CEREP

[11] = biological target: T9, panel of human receptors and channels (Homo sapiens, UniProt P31645); assay type: binding; details: 5-HT transporter (h) (antagonist radioligand); Rep1, Rep2, Mean
T9 construct: purchased Eurofins CEREP
T9 sequence (P31645 whole entry): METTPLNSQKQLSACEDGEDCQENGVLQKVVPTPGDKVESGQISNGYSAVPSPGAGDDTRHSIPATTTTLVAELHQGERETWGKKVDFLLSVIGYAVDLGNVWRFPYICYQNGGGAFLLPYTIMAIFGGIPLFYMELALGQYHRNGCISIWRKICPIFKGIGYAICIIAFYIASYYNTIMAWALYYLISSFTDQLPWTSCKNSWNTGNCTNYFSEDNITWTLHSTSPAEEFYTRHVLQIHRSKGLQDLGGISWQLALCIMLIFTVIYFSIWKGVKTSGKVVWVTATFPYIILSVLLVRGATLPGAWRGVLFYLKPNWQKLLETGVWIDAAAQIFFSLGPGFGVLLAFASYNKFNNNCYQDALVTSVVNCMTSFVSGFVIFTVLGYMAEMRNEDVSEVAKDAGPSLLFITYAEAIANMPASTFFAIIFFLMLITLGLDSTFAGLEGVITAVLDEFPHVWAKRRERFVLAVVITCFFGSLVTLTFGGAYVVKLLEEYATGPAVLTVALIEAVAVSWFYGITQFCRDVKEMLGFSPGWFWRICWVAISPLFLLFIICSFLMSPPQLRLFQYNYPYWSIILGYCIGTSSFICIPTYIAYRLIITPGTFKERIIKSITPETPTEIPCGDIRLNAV

[12] = biological target: T10, panel of human receptors and channels (Homo sapiens, UniProt P32239); assay type: binding; details: CCK2 (CCKB) (h) (agonist radioligand); Rep1, Rep2, Mean
T10 construct: purchased Eurofins CEREP

[13] = biological target: T11, panel of human receptors and channels (Homo sapiens, UniProt P34998); assay type: binding; details: CRF1 (h) (agonist radioligand); Rep1, Rep2, Mean
T11 construct: purchased Eurofins CEREP

[14] = biological target: T12, panel of human receptors and channels (Homo sapiens, UniProt P43116); assay type: binding; details: EP2 (h) (agonist radioligand); Rep1, Rep2, Mean
T12 construct: purchased Eurofins CEREP

[15] = biological target: T13, panel of human receptors and channels (Homo sapiens, UniProt P43681); assay type: binding; details: N neuronal α4β2 (h) (agonist radioligand); Rep1, Rep2, Mean
T13 construct: purchased Eurofins CEREP
T13 sequence (P43681 27-627): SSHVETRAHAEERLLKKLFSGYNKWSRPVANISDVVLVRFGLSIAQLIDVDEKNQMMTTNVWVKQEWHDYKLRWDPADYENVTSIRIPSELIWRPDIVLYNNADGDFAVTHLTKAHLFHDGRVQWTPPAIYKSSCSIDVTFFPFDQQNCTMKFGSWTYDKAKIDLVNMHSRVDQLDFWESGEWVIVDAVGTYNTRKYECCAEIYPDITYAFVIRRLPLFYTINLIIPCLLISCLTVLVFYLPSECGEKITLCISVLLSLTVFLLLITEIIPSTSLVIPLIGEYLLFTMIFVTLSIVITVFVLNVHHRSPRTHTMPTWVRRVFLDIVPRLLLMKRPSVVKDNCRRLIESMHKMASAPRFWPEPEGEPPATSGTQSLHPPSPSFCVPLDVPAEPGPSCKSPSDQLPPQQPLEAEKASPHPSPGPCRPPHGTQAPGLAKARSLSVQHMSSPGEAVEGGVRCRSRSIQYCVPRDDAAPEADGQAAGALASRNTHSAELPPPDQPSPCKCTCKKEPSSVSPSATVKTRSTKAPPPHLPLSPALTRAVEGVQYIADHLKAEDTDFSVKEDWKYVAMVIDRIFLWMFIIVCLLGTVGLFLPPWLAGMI

[16] = biological target: T14, panel of human receptors and channels (Homo sapiens, UniProt P50052); assay type: binding; details: AT2 (h) (agonist radioligand); Rep1, Rep2, Mean
T14 construct: purchased Eurofins CEREP

[17] = biological target: T15, panel of human receptors and channels (Homo sapiens, UniProt Q9GZV3); assay type: binding; details: choline transporter (CHT1) (h) (antagonist radioligand); Rep1, Rep2, Mean
T15 construct: purchased Eurofins CEREP
T15 sequence (Q9GZV3 whole entry): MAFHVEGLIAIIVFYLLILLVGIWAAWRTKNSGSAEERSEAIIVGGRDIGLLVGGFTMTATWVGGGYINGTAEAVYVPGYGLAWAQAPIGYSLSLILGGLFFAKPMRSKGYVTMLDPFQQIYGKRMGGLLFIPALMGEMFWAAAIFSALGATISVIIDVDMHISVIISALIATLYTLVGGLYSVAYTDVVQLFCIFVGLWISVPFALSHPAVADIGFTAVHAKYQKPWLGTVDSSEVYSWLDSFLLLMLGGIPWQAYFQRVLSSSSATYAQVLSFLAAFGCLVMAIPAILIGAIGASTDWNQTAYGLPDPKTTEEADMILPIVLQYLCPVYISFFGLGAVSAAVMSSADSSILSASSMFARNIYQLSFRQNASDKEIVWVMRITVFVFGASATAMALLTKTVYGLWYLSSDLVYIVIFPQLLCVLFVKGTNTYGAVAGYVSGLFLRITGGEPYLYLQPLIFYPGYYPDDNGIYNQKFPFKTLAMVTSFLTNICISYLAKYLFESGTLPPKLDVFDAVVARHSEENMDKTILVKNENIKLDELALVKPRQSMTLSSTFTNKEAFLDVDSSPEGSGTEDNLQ

[18] = test system: panel of human receptors and channels; assay type: binding; details: for % Inhibition of Control Specific Binding: Rep1, Rep2, Mean
hNaV 1.5 = biological target: T16, hNaV 1.5 (Homo sapiens, UniProt Q14524); assay: Manual patch clamp; assay type: cell-based; details: for Minimum current: single cells and Mean, mean
T16 construct: Metrion Biosciences
T16 sequence (Q14524 whole entry): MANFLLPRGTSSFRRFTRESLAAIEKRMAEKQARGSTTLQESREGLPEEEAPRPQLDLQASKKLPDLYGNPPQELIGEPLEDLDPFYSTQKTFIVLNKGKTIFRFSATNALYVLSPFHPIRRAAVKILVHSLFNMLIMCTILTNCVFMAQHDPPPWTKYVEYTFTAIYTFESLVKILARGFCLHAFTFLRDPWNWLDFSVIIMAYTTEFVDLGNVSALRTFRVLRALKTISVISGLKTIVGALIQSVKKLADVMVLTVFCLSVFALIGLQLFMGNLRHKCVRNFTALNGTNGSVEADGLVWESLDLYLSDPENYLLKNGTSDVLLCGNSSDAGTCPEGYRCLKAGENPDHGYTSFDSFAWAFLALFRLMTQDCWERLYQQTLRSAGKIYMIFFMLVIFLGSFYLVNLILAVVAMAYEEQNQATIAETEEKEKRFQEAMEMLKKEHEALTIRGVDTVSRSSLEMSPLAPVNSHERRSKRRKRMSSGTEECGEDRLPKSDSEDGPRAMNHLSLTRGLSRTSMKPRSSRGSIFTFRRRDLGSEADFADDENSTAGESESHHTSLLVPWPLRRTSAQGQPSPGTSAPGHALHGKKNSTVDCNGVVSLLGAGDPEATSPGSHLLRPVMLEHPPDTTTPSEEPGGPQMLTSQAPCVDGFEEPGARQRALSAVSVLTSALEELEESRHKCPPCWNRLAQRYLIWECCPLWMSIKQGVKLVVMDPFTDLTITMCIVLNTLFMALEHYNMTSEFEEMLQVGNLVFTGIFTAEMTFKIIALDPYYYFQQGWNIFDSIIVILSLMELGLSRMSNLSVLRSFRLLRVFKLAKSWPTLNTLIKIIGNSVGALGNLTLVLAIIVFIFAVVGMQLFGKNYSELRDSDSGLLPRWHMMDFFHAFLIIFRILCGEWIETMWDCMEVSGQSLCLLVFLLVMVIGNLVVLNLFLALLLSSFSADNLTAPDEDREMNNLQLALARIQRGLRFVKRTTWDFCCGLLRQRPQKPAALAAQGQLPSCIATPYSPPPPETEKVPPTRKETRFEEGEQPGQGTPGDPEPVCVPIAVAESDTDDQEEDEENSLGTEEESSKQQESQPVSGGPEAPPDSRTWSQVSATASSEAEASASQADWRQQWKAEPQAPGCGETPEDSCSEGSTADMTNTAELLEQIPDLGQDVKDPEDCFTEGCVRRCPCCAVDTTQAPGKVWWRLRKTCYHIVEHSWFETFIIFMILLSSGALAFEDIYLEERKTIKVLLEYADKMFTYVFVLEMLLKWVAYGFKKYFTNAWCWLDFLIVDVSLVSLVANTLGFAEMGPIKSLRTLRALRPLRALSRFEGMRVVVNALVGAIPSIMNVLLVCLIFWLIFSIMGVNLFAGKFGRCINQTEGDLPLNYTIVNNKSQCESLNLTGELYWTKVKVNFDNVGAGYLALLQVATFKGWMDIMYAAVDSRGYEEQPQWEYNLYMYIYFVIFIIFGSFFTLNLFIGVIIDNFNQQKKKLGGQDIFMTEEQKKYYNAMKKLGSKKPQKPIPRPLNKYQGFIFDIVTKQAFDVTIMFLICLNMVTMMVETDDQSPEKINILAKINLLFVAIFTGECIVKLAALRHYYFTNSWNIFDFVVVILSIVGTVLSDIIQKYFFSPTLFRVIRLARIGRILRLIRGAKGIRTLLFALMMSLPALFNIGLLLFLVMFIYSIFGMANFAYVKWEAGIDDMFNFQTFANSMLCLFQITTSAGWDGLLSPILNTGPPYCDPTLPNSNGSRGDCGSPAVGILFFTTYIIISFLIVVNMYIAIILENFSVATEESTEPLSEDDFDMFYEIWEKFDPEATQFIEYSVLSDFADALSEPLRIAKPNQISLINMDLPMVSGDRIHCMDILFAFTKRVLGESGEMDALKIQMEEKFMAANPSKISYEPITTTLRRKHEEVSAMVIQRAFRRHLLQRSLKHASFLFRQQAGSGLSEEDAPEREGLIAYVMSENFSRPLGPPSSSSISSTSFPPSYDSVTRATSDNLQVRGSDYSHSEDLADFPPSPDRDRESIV
Method: (§1) Safety studies were performed by commercial services using their standard protocols. […] Genotoxicity was investigated using the Ames test (Bacterial Reverse Mutation Assay) (Covance Laboratories Ltd, North Yorkshire, England). In vitro mammalian cell micronucleus screening assay was studied in human peripheral blood lymphocytes (BioReliance Corporation, Rockville, USA). Cardiotoxicity was determined against the hERG channel in an automated patch clamp assay using the Qpatch or against the hNaV 1.5, hKV 1.5 and hCaV 1.2 using a manual patch-clamp technique (Metrion Biosciences, Cambridge, UK). Cytotoxicity in human and rat primary hepatocytes was assessed using the CellTiter-Blue assay performed by commercial services (KaLy-Cell). The viability of HepG2 cells was monitored through the addition of 1 mM resazurin. Following 6 h incubation, the relative amount of reduced resazurin was detected in a fluorimeter and compared to the assay controls (vehicle: 0.1% DMSO and positive control: 10 µM puromycin).

[19] = test system: human primary hepatocytes; assay: Primary hepatocyte viability (CellTiter-Blue), human; assay type: cell-based; details: for %Viability: Human primary hepatocytes
Method: as §1

## CC(CNC(=O)C(O)C(C)(C)CO)NC(=O)CCc1ccccc1F (stereo in doubt) [MMV689258]
[1]
  IC50: 5 nM

## C[C@@H](CNC(=O)[C@H](O)C(C)(C)CO)NC(=O)c1cc(F)c(F)cc1F [MMV693183]
[2]
  sensitivity of isolates: sensitive to MMV693183
[2]; ART isolates, read-out: IC50s
  IC50: 1.36 nM and 1.4 nM and 1.6 nM and 1.2 nM and 1.3 nM
[2]; ART-PPQ-AQ isolates, read-out: IC50s
  IC50: 0.84 nM and 1.26 nM and 1.36 nM and 1.54 nM and 1.3 nM and 1.03 nM and 1.1 nM and 1.39 nM
[2]; Cambodian ACT-resistant isolates, read-out: IC50
  IC50: 0.21 to 1.84 nM
[2]; MQ-ART isolates, read-out: IC50s
  IC50: 1.48 nM
[2]; WT isolates, read-out: IC50s
  IC50: 1.57 nM and 1.28 nM and 1.01 nM and 1.31 nM and 1.26 nM and 1.38 nM and 1.32 nM and 1.61 nM
[3]
  % Inhibition of Control Specific Binding: -7.3%
[4]
  % Inhibition of Control Specific Binding: -7.9% and -12.3% and -10.1%
[5]
  % Inhibition of Control Specific Binding: -6.2% and -3.3% and -4.75%
[6]
  % Inhibition of Control Specific Binding: -9.2% and -5.1% and -7.15%
[7]
  % Inhibition of Control Specific Binding: -8.1% and -6.5% and -7.3%
[8]
  % Inhibition of Control Specific Binding: -0.9% and 5.3% and 2.2%
[9]
  % Inhibition of Control Specific Binding: 0.2% and 8.4% and 4.3%
[10]
  % Inhibition of Control Specific Binding: 3.4% and 12.9% and 8.15%
[11]
  % Inhibition of Control Specific Binding: -13.7% and -4.2% and -8.95%
[12]
  % Inhibition of Control Specific Binding: 10.5% and 16.3% and 13.4%
[13]
  % Inhibition of Control Specific Binding: 16.8% and 10.5% and 13.65%
[14]
  % Inhibition of Control Specific Binding: -1.6% and 2.2% and 0.3%
[15]
  % Inhibition of Control Specific Binding: -14.6% and -4.9% and -9.75%
[16]
  % Inhibition of Control Specific Binding: 7.4%
[17]
  % Inhibition of Control Specific Binding: 2.6% and 4.5% and 3.55%
[18]; 10 µM
  induction, GABA (non-selective): 25.2%
  inhibition in cross-reactivity panel of human receptors, enzymes, or channels: < 50%
  inhibition/induction, all other binding assays: less than 25%
[18]; AMPA (agonist radioligand)
  % Inhibition of Control Specific Binding: -3.3% and 6.3% and 1.5%
[18]; BZD (central) (agonist radioligand)
  % Inhibition of Control Specific Binding: -6% and -2.2% and -4.1%
[18]; Ca2+ channel (L, dihydropyridine site) (antagonist radioligand)
  % Inhibition of Control Specific Binding: -8.8% and -2.1% and -5.45%
[18]; Ca2+ channel (L, diltiazem site) (benzothiazepines) (antagonist radioligand)
  % Inhibition of Control Specific Binding: -0.7% and -8.5% and -4.6%
[18]; Ca2+ channel (L, verapamil site) (phenylalkylamine) (antagonist radioligand)
  % Inhibition of Control Specific Binding: -8.2% and -3.1% and -5.65%
[18]; Cl- channel (GABA-gated) (antagonist radioligand)
  % Inhibition of Control Specific Binding: 3.7% and 11.5% and 7.6%
[18]; D2S (h) (antagonist radioligand)
  % Inhibition of Control Specific Binding: 8.5% and 10.6% and 9.55%
[18]; GABA transporter (antagonist radioligand)
  % Inhibition of Control Specific Binding: -5.4% and -8% and -6.7%
[18]; IP (PGI2) (h) (agonist radioligand)
  % Inhibition of Control Specific Binding: 1.7% and -1% and 0.35%
[18]; KV channel (antagonist radioligand)
  % Inhibition of Control Specific Binding: 1.3% and -0.6% and 0.35%
[18]; MT1 (ML1A) (h) (agonist radioligand)
  % Inhibition of Control Specific Binding: -0.2% and 6.2% and 3%
[18]; NMDA (antagonist radioligand)
  % Inhibition of Control Specific Binding: -6% and -8.3% and -7.15%
[18]; Na+ channel (site 2) (antagonist radioligand)
  % Inhibition of Control Specific Binding: 17.2% and 13.3% and 15.25%
[18]; P2Y (agonist radioligand)
  % Inhibition of Control Specific Binding: -7.4% and -3% and -5.2%
[18]; SKCa channel (antagonist radioligand)
  % Inhibition of Control Specific Binding: -1.2% and 2.1% and 0.45%
[18]; Y (non-selective) (agonist radioligand)
  % Inhibition of Control Specific Binding: -24.9% and -15.9% and -20.4%
[18]; kainate (agonist radioligand)
  % Inhibition of Control Specific Binding: -0.8% and 7.7% and 3.45%
[18]; opioid (non-selective) (antagonist radioligand)
  % Inhibition of Control Specific Binding: 4.1% and 0.3% and 2.2%
[18]; α1 (non-selective) (antagonist radioligand)
  % Inhibition of Control Specific Binding: 2.6% and 11.7% and 7.15%
[18]; α2 (non-selective) (antagonist radioligand)
  % Inhibition of Control Specific Binding: -11.5% and -12.5% and -12%
hNaV 1.5; 10 µM
  Inhibition: 1.56%
hNaV 1.5; hNav 1.5
  IC50: > 10000 nM
hNaV 1.5; hNav1.5, 300nM, P1
  Minimum current: 1.33%
hNaV 1.5; hNav1.5, 300nM, P10
  Minimum current: 2.55%
hNaV 1.5; hNav1.5, 1uM, P10
  Minimum current: 0.96%
hNaV 1.5; hNav1.5, 3uM, P1
  Minimum current: -2.90%
hNaV 1.5; hNav1.5, 3uM, P10
  Minimum current: 2.43%
hNaV 1.5; hNav1.5, 10uM, P1
  Minimum current: -1.24%
hNaV 1.5; hNav1.5, 10uM, P10
  Minimum current: 1.56%
[19]; Lot R1323T, 0.1 µM
  %Viability: 98%
[19]; Lot R1323T, 0.5 µM
  %Viability: 92%
[19]; Lot R1323T, 1 µM
  %Viability: 88%
[19]; Lot R1323T, 5 µM
  %Viability: 92%
[19]; Lot R1323T, 10 µM
  %Viability: 99%
[19]; Lot S1552T, 0.1 µM
  %Viability: 98%
[19]; Lot S1552T, 0.5 µM
  %Viability: 98%
[19]; Lot S1552T, 1 µM
  %Viability: 102%
[19]; Lot S1552T, 5 µM
  %Viability: 97%
[19]; Lot S1552T, 10 µM
  %Viability: 104%
[19]; primary human hepatocytes
  IC50: > 10000 nM
